The values below come from paper PMC5115179 (Pharmacology Research & Perspectives, 2016).

Data set [1] in a line: NCS‐382–diclofenac interaction study (inhibition of NCS‐382 glucuronidation). Conditions: mouse; for AUC(0-t): both, in vivo, 25 mg/kg.
Procedure: In this study, mice (n = 3–4 per group) were assigned (balanced for weight and gender) to one of three treatments and collected at one of three time points (0.5, 1, or 2 h).
The test system of the next data set is UGT2B7. Also noted: method as in Miners et al. 1997; Ammon et al. 2000; King et al. 2001. The following applies: ref Miners et al. 1997; Ammon et al. 2000; King et al. 2001; cited from earlier work.
A further data set has as its system UGT1A9. More on the design: method as in Miners et al. 1997; Ammon et al. 2000; King et al. 2001. Conditions: ref Miners et al. 1997; Ammon et al. 2000; King et al. 2001; cited from earlier work.
A further data set has as its system GHB binding sites. Also noted: method as in Wellendorph et al. 2009. The following applies: ref Wellendorph et al. 2009; cited from earlier work.
The subject of data set [2] is gamma‐butyrolactone‐treated mice. Nature of the data set: GBL‐mediated response protection by NCS‐382 in the absence and presence of diclofenac. It counts as in vivo. Conditions: mouse; given alone i.p. (NCS‐382 300 mg/kg or diclofenac 25 mg/kg) 30 min before GBL 100 mg/kg i.p.
Procedure: Wild‐type C57/B6 mice (mixed gender, n = 7) were bred in‐house, weaned at day of life (DOL) 21, and randomized to a treatment sequence (Fig. 2). […] Thirty minutes later, mice were given an i.p. injection of GBL (100 mg/kg diluted in PBS) and were placed into a clean round arena (~10 inches in diameter) and were allowed access to food and water. Mice were recorded on a camera operated by Serena acquisition software (recorded for 10 min). At 5 and 10 min following GBL, righting reflex was assessed. These procedures were repeated daily with ~24 h in between sessions. Data file names were coded such that treatments were blinded at the time of video data analysis. During video data analysis, the time of which noticeable loss of motor function or coordination (e.g., “loss of motor function”) was observed, and the time taken for the subject to enter a dissociative state and fall into an unsupported prone position (e.g., “time to loss of motion”) was monitored. Righting reflex was evaluated by placing the mouse in a supine position and the time to return to all four paws was recorded based on the timestamp of the playback video. Data for each treatment group were expressed as the mean and standard deviation, and statistical significance was evaluated using one‐way ANOVA and Tukey post hoc t test (P < 0.05).
Wild‐type C57/B6 mice (mixed gender, n = 7) were bred in‐house, weaned at day of life (DOL) 21, and randomized to a treatment sequence. […] Thirty minutes later, mice were given an i.p. injection of GBL (100 mg/kg in PBS) and were placed into a clean round arena (~10 inches in diameter) and were allowed access to food and water. Mice were recorded on a camera operated by Sirena acquisition software (recorded for 10 min). At 5 and 10 min following GBL, righting reflex was assessed. These procedures were repeated daily with ~24 h in between sessions. Data files names were coded such that video analysis was blinded at the time of data recording.
For data set [3], the system named is monocarboxylate transporter 1 (MCT1). More on the design: method as in Tamai et al. 1999; Wang and Morris 2007. The following applies: ref Tamai et al. 1999; Wang and Morris 2007; cited from earlier work.
Data set [4] is described as follows: Excretion of NCS‐382 in urine and feces (metabolic cages). Type of data set: in vivo. The following applies: mouse, reanalyzed samples of study 1. How it is done:
To ensure sufficient volumes of urine could be collected in each of the 2 h time intervals (baseline, 0–2, 2–4, 4–6, 6–8 h), three mice were dosed simultaneously and their urine and feces pooled for analysis. The total dose in μg administered to the three animals was therefore used to calculate the percent of the dose excreted in the urine pooled from all three mice. Animals were allowed ad libitum access to food and water of which the intake of each was monitored.
Samples (3 μL) were injected onto a Kinetex PFP (50 × 2.1 mm, 1.7 μm particle size) UPLC column and eluted with a binary gradient consisting of water with 0.1% formic acid (mobile phase A) and methanol with 0.1% formic acid (mobile phase B). […] Eluent was directed to waste for the initial 0.4 min then to an ABI Sciex 6500 Qtrap tandem mass spectrometer. […] Where necessary, samples were diluted in blank matrices for analysis.
Pharmacokinetic outcomes were obtained via standard noncompartmental methods using Kinetica (version 5.1, Thermo Fisher Scientific, Waltham, MA). The maximum concentration (C max) was obtained directly from the concentration–time profiles. Area under the concentration–time curve (AUC) from time zero to the last collected time point was determined using the trapezoidal method with linear up/log down interpolation.

The mark [5] stands for this setting: treatment Diclofenac 25 mg/kg alone.
Setting [6] is: treatment NCS‐382 300 mg/kg + Diclofenac 25 mg/kg.
Where [7] appears, read: treatment NCS‐382 300 mg/kg alone.

The structures appear in SMILES notation.

As for `O=C(O)Cc1ccccc1Nc1c(Cl)cc(O)cc1Cl` [4‐OH‐Diclofenac, 4′‐hydroxydiclofenac], the “Sera AUC0–2 h [90% CI], relative quantification (peak area ratio)” value in data set [1] (setting [5]) was 6.76 [5.18–8.33] PAR*h; in data set [1] (setting [6]) it was 8.28 [7.60–8.97] PAR*h.

Compound `O=C(O)Cc1cc(O)ccc1Nc1c(Cl)cccc1Cl` [5‐OH‐Diclofenac, 5‐hydroxydiclofenac] yielded an AUC(0-t) in data set [1] of 61.3 µM·h. Moreover, the entries for the “Brain AUC0–2 h [90% CI]” value in data set [1] (setting [5]) and in data set [1] (setting [6]) were 4.60 [4.55–4.65] nmol g/tissue*h and 5.20 [4.77–5.62] ^a nmol g/tissue*h, respectively.

As for `O=C(Cc1ccccc1Nc1c(Cl)cccc1Cl)O[C@@H]1O[C@H](C(=O)O)[C@@H](O)[C@H](O)[C@H]1O` [Diclofenac glucuronide], the “Brain AUC0–2 h [90% CI], relative quantification (peak area ratio)” value in data set [1] (setting [5]) was 5.87 [4.46–7.28] PAR*h; in data set [1] (setting [6]), 3.96 [3.25–4.67] PAR*h. Besides, the “Sera AUC0–2 h [90% CI], relative quantification (peak area ratio)” value is 8.57 [6.09–11.04] PAR*h in data set [1] (setting [5]) and 4.67 [4.21–5.13] ^a PAR*h in data set [1] (setting [6]).

In data set [1], `O=C(O)Cc1ccccc1Nc1c(Cl)cccc1Cl` [Diclofenac] came in with an AUC(0-t) of 232 µM·h. Moreover, the “Brain AUC0–2 h [90% CI]” value in data set [1] (setting [5]) was 33.8 [28.2–39.4] nmol/g/tissue*h; in data set [1] (setting [6]), 44.9 [39.5–50.3] ^a nmol/g/tissue*h. The inhibitory constant (Ki) was […] in the data set on UGT2B7 and 11 µM with UGT1A9. Further, in the data set with GHB binding sites, the “binding to GHB binding sites in rat brain” value is reported as “ligand for the GHB binding sites in rat brain”. Moreover, the “time to loss of motor function compared to vehicle control” value in data set [2] is listed as “did not have a measureable effect”.

Turning to `O=C(O)CCCO` [GHB, gamma‐hydroxybutyric acid], the Km in data set [3] was 4.6 to 7.7 mM.

In the case of `O=C(O)/C=C1\CCCc2ccccc2C1=O` [NCS dehydrogenation], the “Sera AUC0–2 h [90% CI], relative quantification (peak area ratio)” value is 2.72 [2.26–3.18] ^a PAR*h in data set [1] (setting [6]) and 1.99 [1.82–2.16] PAR*h in data set [1] (setting [7]). Further, the “detection of NCS‐382 metabolites in urine and feces” value in data set [4] was “found in neither”.

Regarding `O=C(O)/C=C1\CCCc2ccccc2C1O[C@@H]1O[C@H](C(=O)O)[C@@H](O)[C@H](O)[C@H]1O` (stereo partly shown) [NCS‐Glucuronide], in data set [1] (setting [6]), the “Brain AUC0–2 h [90% CI], relative quantification (peak area ratio)” value is 4.58 [3.61–5.55] PAR*h and the “Sera AUC0–2 h [90% CI], relative quantification (peak area ratio)” value is 2.86 [2.55–3.18] PAR*h. Moreover, in data set [1] (setting [7]), the “Brain AUC0–2 h [90% CI], relative quantification (peak area ratio)” value was 3.28 [2.53–4.03] PAR*h and the “Sera AUC0–2 h [90% CI], relative quantification (peak area ratio)” value was 3.65 [2.65–4.65] PAR*h. In addition, the “detection of NCS‐382 metabolites in urine and feces” value in data set [4] was “detectable in both the urine and feces”.
